Drawing on PubChem BioAssay AID330 (DTP/NCI, 2004), this text covers T/C for 17 compounds.

This assay has as its system P388 leukemia ip, CD2F1 mice, survival T/C. Kind of assay: NCI In Vivo Anticancer Drug Screen. Data for tumor model P388 Leukemia (intraperitoneal) in CD2F1 (CDF1) mice. The note with it: endpoint: median survival time, higher = longer survival. The essentials:
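Mice carrying the transplanted tumor received test compound or vehicle. Survival was recorded in each group, and the value is the treated-group measurement divided by that of the vehicle-treated control group.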

[1] abbreviates: dose: 25.0 mg/kg/injection, schedule: Q01DX009 (ip), vehicle: Klucel (hydroxypropylcellulose) (HPC).
Where [2] appears, read: dose: 50.0 mg/kg/injection, schedule: Q01DX009 (ip), vehicle: saline with Tween-80.
Where [3] appears, read: dose: 100.0 mg/kg/injection, schedule: Q01DX009 (ip), vehicle: saline with Tween-80.
Where [4] appears, read: dose: 200.0 mg/kg/injection, schedule: Q01DX009 (ip), vehicle: saline with Tween-80.
[5] abbreviates: dose: 100.0 mg/kg/injection, schedule: Q04DX003 (ip), vehicle: saline with Tween-80.
Setting [6] is: dose: 200.0 mg/kg/injection, schedule: Q04DX003 (ip), vehicle: saline with Tween-80.
Setting [7] is: dose: 50.0 mg/kg/injection, schedule: Q01DX009 (ip), vehicle: Klucel (hydroxypropylcellulose) (HPC).
[8] abbreviates: dose: 100.0 mg/kg/injection, schedule: Q01DX009 (ip), vehicle: Klucel (hydroxypropylcellulose) (HPC).
Where [9] appears, read: dose: 200.0 mg/kg/injection, schedule: Q01DX009 (ip), vehicle: Klucel (hydroxypropylcellulose) (HPC).

The structures appear in SMILES notation. Several values for one entry are separate records, joined by “and”; a condition that tells them apart may be missing. Equal entries are not always repeated. Inconclusive results and toxic doses are left out. Numbered stars: 1 amine (or outer) side, 2 acyl side, 3 side chain; on linkers, the order of the positions; unused ones are H or OH. Bridge positions count the residues as written; N and C are the ends. Square brackets hold non-standard residues; d marks the D form. Peptide text beside a SMILES is read from it. I, II: the chains in the order shown. Actinocin(1to9) = Cc1c2oc3c(C)ccc(C(=O)[*:2])c3nc-2c(C(=O)[*:1])c(N)c1=O; NMeV = CN[CH](C(=O)O)C(C)C; Aze = O=C(O)[CH]1CCN1; Sar = CNCC(=O)O

Turning to `C1=C[N]2c3c4c(ccc3=C1)=CC=C[N]4[Ga]2[c]1ccccc1`, the T/C reads like this: (dose: 6.25 mg/kg/injection, schedule: Q01DX009 (ip), vehicle: Klucel (hydroxypropylcellulose) (HPC)) 103 % of control; (dose: 12.5 mg/kg/injection, schedule: Q01DX009 (ip), vehicle: Klucel (hydroxypropylcellulose) (HPC)) 106 % of control; under setting [1], 118 % of control.
For `C[C@H](N)[C@@H](O)/C=C/c1ccccc1`, the T/C runs as follows: (dose: 10.0 mg/kg/injection, schedule: Q01DX005 (ip), vehicle: saline) 98 % of control; (dose: 20.0 mg/kg/injection, schedule: Q01DX005 (ip), vehicle: saline) 100 % of control; (dose: 40.0 mg/kg/injection, schedule: Q01DX005 (ip), vehicle: saline) 100 % of control.
With `O=S(=O)(O)/[N+]([O-])=N/O`, the T/C is, setting by setting: (dose: 100.0 mg/kg/injection, schedule: Q04DX003 (ip), vehicle: saline) 100 % of control; (dose: 200.0 mg/kg/injection, schedule: Q04DX003 (ip), vehicle: saline) 100 % of control; (dose: 400.0 mg/kg/injection, schedule: Q04DX003 (ip), vehicle: saline) 100 % of control.
With `CSC(=S)/N=c1\c(C)cccn1C`, the T/C was 98 % of control (dose: 25.0 mg/kg/injection, schedule: Q04DX002 (ip), vehicle: saline with Tween-80); 100 % of control (dose: 50.0 mg/kg/injection, schedule: Q04DX002 (ip), vehicle: saline with Tween-80); 102 % of control (dose: 100.0 mg/kg/injection, schedule: Q04DX002 (ip), vehicle: saline with Tween-80).
Consider `CC(C)(C)c1ccc(-c2nnc(C(F)(F)F)nn2)cc1`, for which the T/C under setting [2] is 100 % of control, the T/C under setting [3] is 100 % of control and the T/C under setting [4] was 108 % of control.
As for `N#CC/C(=N\Nc1ccc([N+](=O)[O-])cc1[N+](=O)[O-])c1ccccc1`, the T/C by setting is: under setting [5], 100 % of control; under setting [6], 90 % of control; (dose: 400.0 mg/kg/injection, schedule: Q04DX003 (ip), vehicle: saline with Tween-80) 95 % of control.
Take `Cc1ccc(C2=C/C(=C/c3ccc(N(CCC#N)CCC#N)cc3)C(=O)O2)c(C)c1`: the T/C runs as follows: (dose: 100.0 mg/kg/injection, schedule: Q01DX001 (ip), vehicle: saline with Tween-80) 95 % of control; (dose: 200.0 mg/kg/injection, schedule: Q01DX001 (ip), vehicle: saline with Tween-80) 95 % of control; (dose: 400.0 mg/kg/injection, schedule: Q01DX001 (ip), vehicle: saline with Tween-80) 87 % of control.
On to `CC(=O)OC1OC(C[Se][As](C)C)C(OC(C)=O)C(OC(C)=O)C1OC(C)=O` (centres undefined), for which the T/C is, setting by setting: under setting [7], 107 % of control; under setting [8], 120 % of control; under setting [9], 114 % of control.
Consider `S=C(Oc1ccccc1)SSC(=S)Oc1ccccc1`, for which the T/C by setting is: (dose: 25.0 mg/kg/injection, schedule: Q04DX003 (ip), vehicle: saline with Tween-80) 114 % of control; (dose: 50.0 mg/kg/injection, schedule: Q04DX003 (ip), vehicle: saline with Tween-80) 104 % of control; (dose: 100.0 mg/kg/injection, schedule: Q04DX003 (ip), vehicle: DMSO) 90 % of control; under setting [5], 96 % of control; under setting [6], 107 % of control.
For `O=C(O)CCS/N=N/c1nc2nc[nH]c(=O)c2[nH]1`, the T/C by setting is: (dose: 50.0 mg/kg/injection, schedule: Q01DX005 (ip), vehicle: Klucel (hydroxypropylcellulose) (HPC)) 107 % of control; (dose: 100.0 mg/kg/injection, schedule: Q01DX005 (ip), vehicle: Klucel (hydroxypropylcellulose) (HPC)) 103 % of control; (dose: 200.0 mg/kg/injection, schedule: Q01DX005 (ip), vehicle: Klucel (hydroxypropylcellulose) (HPC)) 104 % of control.
As for `COC1/C=C\OC2(C)Oc3c(C)c(O)c4c(O)c(c5[nH]c(-c6ccccc6)nc5c4c3C2=O)NC(=O)/C(C)=C\C=C\C(C)C(O)C(C)C(O)C(C)C(OC(C)=O)C1C` (centres undefined), the T/C under setting [1] was 106 % of control, the T/C under setting [7] was 100 % of control and the T/C under setting [8] was 88 % of control.
For `c1ccc(Nc2ccc(CN3CCCC3)cc2)cc1`, the T/C was 107 % of control (dose: 60.0 mg/kg/injection, schedule: Q01DX005 (ip), vehicle: Klucel (hydroxypropylcellulose) (HPC)); 107 % of control (dose: 120.0 mg/kg/injection, schedule: Q01DX005 (ip), vehicle: Klucel (hydroxypropylcellulose) (HPC)); 107 % of control (dose: 240.0 mg/kg/injection, schedule: Q01DX005 (ip), vehicle: Klucel (hydroxypropylcellulose) (HPC)).
As to `CSC1(C)C(=O)Nc2cc([N+](=O)[O-])ccc21` (centres undefined), the T/C by setting is: (dose: 25.0 mg/kg/injection, schedule: Q01DX009 (ip), vehicle: saline with Tween-80) 100 % of control; under setting [2], 99 % of control; under setting [3], 113 % of control.
On to `Oc1ccc(N=Nc2nccs2)c(O)c1`, for which the T/C was 96 % of control under setting [2], 93 % of control under setting [3] and 99 % of control under setting [4].
In the case of `Brc1ccc(CC[P+](c2ccccc2)(c2ccccc2)c2ccccc2)cc1`, the T/C (dose: 25.0 mg/kg/injection, schedule: Q04DX003 (ip), vehicle: Klucel (hydroxypropylcellulose) (HPC)) is 109 % of control; the T/C (dose: 50.0 mg/kg/injection, schedule: Q04DX003 (ip), vehicle: Klucel (hydroxypropylcellulose) (HPC)) was 101 % of control; the T/C (dose: 100.0 mg/kg/injection, schedule: Q04DX003 (ip), vehicle: Klucel (hydroxypropylcellulose) (HPC)) is 100 % of control and 105 % of control.
For `COc1cc(-c2cc(C(=O)O)c3cc4ccccc4cc3n2)cc(OC)c1OC`, the T/C under setting [7] is 113 % of control, the T/C under setting [8] is 110 % of control and the T/C under setting [9] is 104 % of control.
In the case of `Cc1c2oc3c(C)ccc(C(=O)NC4C(=O)NC(C(C)C)C(=O)N5CCCC5C(=O)N(C)CC(=O)N(C)C(C(C)C)C(=O)OC4C)c3nc-2c(C(=O)NC2C(=O)NC(C(C)C)C(=O)N3CCC3C(=O)N(C)CC(=O)N(C)C(C(C)C)C(=O)OC2C)c(N)c1=O` (centres undefined) (I: TV[Aze][Sar][NMeV] / II: TVP[Sar][NMeV]; ester I:1-I:C, II:1-II:C; linker I:N-II:N via Actinocin(1to9); configuration not given here), the T/C (dose: 0.05 mg/kg/injection, schedule: Q01DX009 (ip), vehicle: water) is 214 % of control; the T/C (dose: 0.08 mg/kg/injection, schedule: Q04DX003 (ip), vehicle: saline) is 96 % of control; the T/C (dose: 0.15 mg/kg/injection, schedule: Q04DX003 (ip), vehicle: saline) is 102 % of control; the T/C (dose: 0.3 mg/kg/injection, schedule: Q04DX003 (ip), vehicle: saline) was 105 % of control; the T/C (dose: 12.5 micrograms/kg/injection, schedule: Q01DX009 (ip), vehicle: saline) is 123 % of control; the T/C (dose: 12.5 micrograms/kg/injection, schedule: Q01DX009 (ip), vehicle: water) is 167 % of control. Moreover, the T/C (dose: 19.4 micrograms/kg/injection, schedule: Q01DX009 (ip), vehicle: saline + alcohol) was 150 % of control; the T/C (dose: 25.0 micrograms/kg/injection, schedule: Q01DX009 (ip), vehicle: water) is 200 % of control; the T/C (dose: 32.4 micrograms/kg/injection, schedule: Q01DX009 (ip), vehicle: saline + alcohol) was 165 % of control; the T/C (dose: 50.0 micrograms/kg/injection, schedule: Q01DX009 (ip), vehicle: saline) was 155 % of control; the T/C (dose: 50.0 micrograms/kg/injection, schedule: Q01DX009 (ip), vehicle: water) was 266 % of control; the T/C (dose: 54.0 micrograms/kg/injection, schedule: Q01DX009 (ip), vehicle: saline + alcohol) is 177 % of control. The T/C by setting is: (dose: 90.0 micrograms/kg/injection, schedule: Q01DX009 (ip), vehicle: saline + alcohol) 186 % of control; (dose: 100.0 micrograms/kg/injection, schedule: Q01DX009 (ip), vehicle: saline) 171 % of control; (dose: 100.0 micrograms/kg/injection, schedule: Q01DX009 (ip), vehicle: water) 89 % of control; (dose: 150.0 micrograms/kg/injection, schedule: Q01DX009 (ip), vehicle: saline + alcohol) 238 % of control; (dose: 200.0 micrograms/kg/injection, schedule: Q01DX009 (ip), vehicle: saline) 250 % of control; (dose: 250.0 micrograms/kg/injection, schedule: Q01DX009 (ip), vehicle: saline + alcohol) 100 % of control. For the setting “dose: 400.0 micrograms/kg/injection, schedule: Q01DX009 (ip), vehicle: saline”, the T/C was 86 % of control.
